Source: article PMC6628159 (Marine Drugs, 2019)
Values joined by “and” are separate entries in the source; they are usually repeats but may differ in a detail not shown here. Identical values can stand only once. Like-named read-outs stand apart in the source and are kept apart here.

Columns and labels:
recombinant human HDAC1 = target: T1, recombinant human HDAC1 (Homo sapiens, UniProt Q13547); experiment: Recombinant human HDAC1 enzymatic assay (Ac-peptide-AMC, fluorescence); assay type: biochemical
T1 construct: purchased BPS Biosciences
T1 sequence (Q13547 whole entry): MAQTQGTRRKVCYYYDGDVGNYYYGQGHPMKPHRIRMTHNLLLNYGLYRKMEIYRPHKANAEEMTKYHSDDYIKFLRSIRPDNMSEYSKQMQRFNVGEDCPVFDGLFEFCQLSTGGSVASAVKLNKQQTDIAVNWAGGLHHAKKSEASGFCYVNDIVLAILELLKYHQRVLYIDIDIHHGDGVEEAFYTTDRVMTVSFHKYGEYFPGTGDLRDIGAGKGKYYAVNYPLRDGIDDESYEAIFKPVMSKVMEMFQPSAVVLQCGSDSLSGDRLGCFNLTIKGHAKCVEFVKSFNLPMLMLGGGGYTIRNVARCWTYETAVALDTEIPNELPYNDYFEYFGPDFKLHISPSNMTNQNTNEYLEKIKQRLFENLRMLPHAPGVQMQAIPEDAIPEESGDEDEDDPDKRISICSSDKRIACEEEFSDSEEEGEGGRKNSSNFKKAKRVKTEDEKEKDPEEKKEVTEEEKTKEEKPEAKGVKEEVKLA
Protocol: (§1) The assays were carried out by Shanghai ChemPartner Co., Ltd. (Shanghai, China). Briefly, different concentrations of compounds were incubated with recombinant human HDAC1, HDAC2, HDAC3, HDAC6, and HDAC8 (BPS Biosciences, San Diego, CA, USA) at room temperature for 15 min, which was followed by adding Ac-peptide-AMC substrates to initiate the reaction in Tris-based assay buffer. Reaction mixtures were incubated at room temperature for 60 min in the HDAC1, HDAC2, HDAC3, and HDAC6 assays, and were incubated for 240 min in the HDAC8 assay. Then a stop solution containing trypsin was added. The coupled reaction was incubated for another 90 min at 37 °C. […] IC50 values were calculated by GraphPad Prism version 4.00 Windows (GraphPad Software, San Diego, CA, USA).

recombinant human HDAC2 = target: T2, recombinant human HDAC2 (Homo sapiens, UniProt Q92769); experiment: Recombinant human HDAC2 enzymatic assay (Ac-peptide-AMC, fluorescence); assay type: biochemical
T2 construct: purchased BPS Biosciences
T2 sequence (Q92769 whole entry): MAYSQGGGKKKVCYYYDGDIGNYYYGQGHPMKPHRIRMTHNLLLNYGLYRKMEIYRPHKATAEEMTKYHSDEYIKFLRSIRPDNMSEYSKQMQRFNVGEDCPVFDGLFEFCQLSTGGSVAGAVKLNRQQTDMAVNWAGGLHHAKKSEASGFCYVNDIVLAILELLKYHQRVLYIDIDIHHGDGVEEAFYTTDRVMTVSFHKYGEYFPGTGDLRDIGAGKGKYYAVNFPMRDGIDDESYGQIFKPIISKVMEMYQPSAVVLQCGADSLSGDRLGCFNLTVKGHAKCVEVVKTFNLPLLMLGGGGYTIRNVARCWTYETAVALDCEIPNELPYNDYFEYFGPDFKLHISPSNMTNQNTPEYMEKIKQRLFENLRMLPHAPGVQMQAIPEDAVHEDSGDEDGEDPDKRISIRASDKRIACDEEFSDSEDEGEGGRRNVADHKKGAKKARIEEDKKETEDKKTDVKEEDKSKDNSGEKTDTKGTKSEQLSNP
Protocol: as §1

recombinant human HDAC3 = target: T3, recombinant human HDAC3 (Homo sapiens, UniProt O15379); experiment: Recombinant human HDAC3 enzymatic assay (Ac-peptide-AMC, fluorescence); assay type: biochemical; details: 10-dose IC50 mode in duplicate, threefold serial dilution; 60 min reaction; read-out: IC50 ± SD HDAC3
T3 construct: purchased BPS Biosciences
T3 sequence (O15379 whole entry): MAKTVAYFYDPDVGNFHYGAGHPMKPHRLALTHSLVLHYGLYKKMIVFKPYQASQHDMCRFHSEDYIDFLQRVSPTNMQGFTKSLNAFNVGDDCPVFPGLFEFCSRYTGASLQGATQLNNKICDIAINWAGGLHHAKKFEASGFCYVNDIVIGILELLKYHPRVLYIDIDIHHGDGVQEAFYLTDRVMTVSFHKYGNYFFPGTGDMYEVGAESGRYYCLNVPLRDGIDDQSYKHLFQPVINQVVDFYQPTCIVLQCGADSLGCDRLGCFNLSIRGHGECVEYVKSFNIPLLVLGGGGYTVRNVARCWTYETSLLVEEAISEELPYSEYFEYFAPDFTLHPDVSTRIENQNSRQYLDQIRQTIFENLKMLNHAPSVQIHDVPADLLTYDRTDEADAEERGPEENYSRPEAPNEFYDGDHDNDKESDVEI
T3 sequence (Q9Y618 395-489 partner limits assumed): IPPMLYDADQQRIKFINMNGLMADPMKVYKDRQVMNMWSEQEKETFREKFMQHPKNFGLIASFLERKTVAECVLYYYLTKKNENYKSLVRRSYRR
Protocol: as §1

recombinant human HDAC8 = target: T4, recombinant human HDAC8 (Homo sapiens, UniProt Q9BY41); experiment: Recombinant human HDAC8 enzymatic assay (Ac-peptide-AMC, fluorescence); assay type: biochemical
T4 construct: purchased BPS Biosciences
T4 sequence (Q9BY41 1-377): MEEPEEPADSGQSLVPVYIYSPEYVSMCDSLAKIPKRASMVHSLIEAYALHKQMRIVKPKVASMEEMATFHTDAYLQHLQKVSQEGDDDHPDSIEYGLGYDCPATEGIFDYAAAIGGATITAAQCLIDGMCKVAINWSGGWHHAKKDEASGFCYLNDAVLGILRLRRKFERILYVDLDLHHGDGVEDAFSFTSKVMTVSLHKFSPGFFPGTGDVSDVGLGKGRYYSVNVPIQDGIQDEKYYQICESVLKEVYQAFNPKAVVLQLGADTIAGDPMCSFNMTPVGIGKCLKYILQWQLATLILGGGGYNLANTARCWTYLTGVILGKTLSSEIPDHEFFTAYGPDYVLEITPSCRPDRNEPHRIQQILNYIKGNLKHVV
Protocol: as §1

recombinant human HDAC6 = target: T5, recombinant human HDAC6 (Homo sapiens, UniProt Q9UBN7); experiment: Recombinant human HDAC6 enzymatic assay (Ac-peptide-AMC, fluorescence); assay type: biochemical; details: read-out: IC50 ± SD HDAC6
T5 construct: purchased BPS Biosciences
T5 sequence (Q9UBN7 1-1215): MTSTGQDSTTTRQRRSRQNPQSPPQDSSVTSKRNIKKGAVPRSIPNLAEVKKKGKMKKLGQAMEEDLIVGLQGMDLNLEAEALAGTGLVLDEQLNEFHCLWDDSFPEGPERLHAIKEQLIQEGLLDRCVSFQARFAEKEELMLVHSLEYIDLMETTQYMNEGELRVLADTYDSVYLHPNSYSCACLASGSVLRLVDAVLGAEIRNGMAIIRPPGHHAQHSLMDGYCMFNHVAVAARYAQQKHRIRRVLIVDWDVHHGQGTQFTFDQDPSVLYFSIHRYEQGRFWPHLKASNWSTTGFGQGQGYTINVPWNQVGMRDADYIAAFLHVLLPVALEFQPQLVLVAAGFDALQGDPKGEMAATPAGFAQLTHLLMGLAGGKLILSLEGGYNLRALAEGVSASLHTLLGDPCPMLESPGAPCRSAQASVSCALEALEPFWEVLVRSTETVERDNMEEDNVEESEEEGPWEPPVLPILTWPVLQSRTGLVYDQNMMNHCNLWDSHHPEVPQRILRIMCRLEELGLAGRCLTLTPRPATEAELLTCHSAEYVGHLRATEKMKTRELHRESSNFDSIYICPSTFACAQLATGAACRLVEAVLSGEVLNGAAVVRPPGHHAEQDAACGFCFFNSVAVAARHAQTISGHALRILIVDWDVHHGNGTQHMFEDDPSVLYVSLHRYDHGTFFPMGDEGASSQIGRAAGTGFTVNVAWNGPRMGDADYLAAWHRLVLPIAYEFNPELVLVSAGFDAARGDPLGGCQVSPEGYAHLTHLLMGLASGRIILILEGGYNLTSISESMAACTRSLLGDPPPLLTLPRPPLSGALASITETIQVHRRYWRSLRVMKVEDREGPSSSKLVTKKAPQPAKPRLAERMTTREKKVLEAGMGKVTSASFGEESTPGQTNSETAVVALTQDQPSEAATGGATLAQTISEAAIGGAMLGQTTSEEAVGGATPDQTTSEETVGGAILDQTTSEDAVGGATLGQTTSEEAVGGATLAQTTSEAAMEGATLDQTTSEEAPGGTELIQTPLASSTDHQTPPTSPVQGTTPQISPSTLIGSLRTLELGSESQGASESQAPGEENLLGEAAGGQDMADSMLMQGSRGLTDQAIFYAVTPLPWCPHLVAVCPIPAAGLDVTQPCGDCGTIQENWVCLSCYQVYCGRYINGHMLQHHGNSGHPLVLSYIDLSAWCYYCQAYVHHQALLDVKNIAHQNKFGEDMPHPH
Protocol: as §1

A549 tumor cells = experiment: MTT assay, growth inhibition of A549 cells; assay type: cell-based; details: Homo sapiens, read-out: IC50 ± SD A549 growth inhibition
Protocol: (§2) Cells (600,000 cells/well) were seeded in 96-well plates and incubated for 24 h before being treated with various concentrations of compounds or solvent control. Cells were further incubated for 72 h and then treated with MTT and incubated for another 3 h. The media were then removed and 100 µL DMSO was added to each well. The absorbance at 550 nm was measured by a SpectraMAX340 microplate reader (Molecular Devices, Sunnyvale, CA, USA) with a reference wavelength at 690 nm.

HCT116 tumor cells [1] = experiment: MTT assay, growth inhibition of HCT116 cells; assay type: cell-based; details: seven-dose IC50 mode in duplicate, four-fold serial dilution
Protocol: as §2

MDA-MB-231 tumor cells = experiment: MTT assay, growth inhibition of MDA-MB-231 cells; assay type: cell-based; details: Homo sapiens, read-out: IC50 ± SD MDA-MB-231 growth inhibition
Protocol: as §2

SK-OV-3 tumor cells = experiment: MTT assay, growth inhibition of SK-OV-3 cells; assay type: cell-based; details: seven-dose IC50 mode in duplicate, four-fold serial dilution
Protocol: as §2

HCT116 tumor cells [2] = details: reported by Leusch; read-out: IC50 HCT116 growth inhibition (data in parentheses) (converted); cited from earlier work
[3] = IC50 value ratio of HDAC 1 versus HDAC 6
[4] = 10-dose IC50 mode in duplicate, threefold serial dilution, 240 min reaction, read-out: IC50 ± SD HDAC8

| Selectivity (HDAC1/6) (recombinant human HDAC1; [3]) | IC50 (recombinant human HDAC1; read-out: IC50 ± SD HDAC1) | IC50 (recombinant human HDAC2; read-out: IC50 ± SD HDAC2) | IC50 (recombinant human HDAC3) | IC50 (recombinant human HDAC8; [4]) | IC50 (recombinant human HDAC6) | Compound | IC50 (recombinant human HDAC8) | further results |
| --- | --- | --- | --- | --- | --- | --- | --- | --- |
| 68 | 4.4 ± 0.2 nM | 21 ± 0.3 nM | 39.2 nM and 39 nM | 8.5 ± 2.5 nM | 300 ± 5 nM | CC(C)[C@@H]1NC(=O)[C@]2(C)CSC(=N2)c2csc(n2)CNC(=O)C[C@@H](/C(F)=C/CCS)OC1=O [Compound 15a, (5R,8S,11S/R)-11-((Z)-1-Fluoro-4-mercaptobut-1-en-1-yl)-8-isopropyl-5-methyl-10-oxa-3,17-dithia-7,14,19,20-tetraazatricyclo[14.2.1.12,5]icosa-1(18),2(20),16(19)-triene-6,9,13-trione] | – | selectivity towards HDAC 1 over HDAC 6 (recombinant human HDAC1; [3]): about 68 fold |
| 80 | 4.2 ± 0.3 nM | 16.2 ± 0.4 nM | 37.1 ± 0.7 nM | 17.6 ± 4.1 nM | 338 ± 17 nM | C[C@@]12CSC(=N1)c1csc(n1)CNC(=O)C[C@@H](/C(F)=C/CCS)OC(=O)[C@H](Cc1ccccc1)NC2=O [Compound 15b] | – | – |
| – | – | – | – | – | – | CCCCCCCC(=O)SCC/C=C/[C@@H]1CC(=O)NCc2nc(cs2)C2=N[C@@](C)(CS2)C(=O)N[C@@H](C(C)C)C(=O)O1 [Largazole, reference compound] | 120 ± 58 nM | IC50 (recombinant human HDAC1; 10-dose IC50 mode in duplicate, threefold serial dilution, 60 min reaction, read-out: IC50 ± SD HDAC1): 228 ± 34 nM; IC50 (recombinant human HDAC2): 1520 ± 15 nM; IC50 (A549 tumor cells; A549, 72 h): 460 ± 100 nM; IC50 (HCT116 tumor cells [1]; Homo sapiens, HCT-116, 72 h, read-out: IC50 ± SD HCT116 growth inhibition, MTT, 72 h): 184 nM; IC50 (HCT116 tumor cells [1]; read-out: IC50 ± SD HCT116 growth inhibition, MTT, 72 h): 180 ± 10 nM; IC50 (MDA-MB-231 tumor cells; MDA-MB-231, 72 h): 1370 ± 410 nM; IC50 (SK-OV-3 tumor cells; Homo sapiens, SK-OV-3, 72 h, read-out: IC50 ± SD SK-OV-3 growth inhibition, MTT, 72 h): 34 nM; IC50 (SK-OV-3 tumor cells; read-out: IC50 ± SD SK-OV-3 growth inhibition, MTT, 72 h): 30 ± 10 nM; IC50 (HCT116 tumor cells [2]): 44 nM |

| Compound | Selectivity (HDAC1/6) (recombinant human HDAC1; [3]) | IC50 (recombinant human HDAC1; read-out: IC50 ± SD HDAC1) | IC50 (recombinant human HDAC2; read-out: IC50 ± SD HDAC2) | IC50 (recombinant human HDAC3) | IC50 (recombinant human HDAC8; [4]) | IC50 (recombinant human HDAC6) | IC50 (recombinant human HDAC8) | further results |
| --- | --- | --- | --- | --- | --- | --- | --- | --- |
| CCCCCCCC(=O)SCC/C=C(\F)[C@@H]1CC(=O)NCc2nc(cs2)C2=N[C@@](C)(CS2)C(=O)N[C@@H](C(C)C)C(=O)O1 [Compound 16a, S-((Z)-4-Fluoro-4-((5R,8S,11S/R)-8-isopropyl-5-methyl-6,9,13-trioxo-10-oxa-3,17-dithia-7,14,19,20-tetraazatricyclo[14.2.1.12,5]icosa-1(18),2(20),16(19)-trien-11-yl)but-3-en-1-yl) octanethioate] | – | – | 1817 ± 17 nM | – | – | – | 255 ± 92 nM | IC50 (recombinant human HDAC1): 385 ± 45 nM; IC50 (A549 tumor cells; A549, MTT, 72 h, seven-dose IC50 mode in duplicate, four-fold serial dilution): 520 ± 120 nM; IC50 (HCT116 tumor cells [1]; Homo sapiens, HCT-116, MTT, 72 h, read-out: IC50 ± SD HCT116 growth inhibition): 810 ± 130 nM; IC50 (MDA-MB-231 tumor cells; MDA-MB-231, MTT, 72 h, seven-dose IC50 mode in duplicate, four-fold serial dilution): 3850 ± 440 nM; IC50 (SK-OV-3 tumor cells; Homo sapiens, SK-OV-3, MTT, 72 h, read-out: IC50 ± SD SK-OV-3 growth inhibition): 250 ± 130 nM |
